Assay results taken from patent publication US4531001A, “2-β-D-ribofuranosylselenazole-4-carboxamide compounds” (priority 1983, dated 1985).
Several values for one entry are separate records, joined by “and”; a condition that tells them apart may be missing. Equal entries are not always repeated. Entries after “also recorded” stand apart in the source; their conditions may differ.

Tests used:
Lewis lung carcinoma [1] = test: Antitumor activity against Lewis lung carcinoma, Example 12 (Table 1); assay type: in vivo, B6 D2 F1 male mice; conditions: for Treated Group Survival Time: median, control 19.0, 60-day test
Experimental: (§1) As illustrative examples of the antitumor use of COMPOUNDS 1 and 2, Examples 12 through 14, below, are given. […] The tests utilized in these illustrative examples were conducted by the Developmental Therapeutics Program, Division of Cancer Treatment, National Cancer Institute. The tests were supervised by this agency utilizing their standard protocols and procedures. All tests conformed to these protocols and all tests were evaluated under the criteria defined by these protocols. The following representative examples illustrate confirmed activity of the illustrative compounds of the invention against screening tumor systems of the National Cancer Institute.
(§2) For purposes of the following examples, the abbreviation IP stands for intraperitoneal and IV stands for intravenous. The mean and median survival times are calculated in instruction 14 (revised 6/78) of the Screening Data Summary, Developmental Therapeutics Program, Division of Cancer Treatment, National Cancer Institute. The contents of this Screening Data Summary including appropriate revisions are herein incorporated by reference.
(§3) In the illustrated examples below, the vehicle used as carrier for the drug was injected (minus any drug therein) into the control animals at the same level of use of the vehicle in the drug treated animals in order to eliminate any vehicle effect of the tests.
For example 12, B6 D2 F1 male mice were used and challenged with Lewis lung carcinoma. The median survival time of the test animals was compared to that of appropriate control animals.
In Example 12, forty control animals and ten test animals were used, each at dose levels indicated below in Table 1. For both the control group and the drug treated group, tumors were induced by IV injection on day zero followed by initiation of drug treatment on day one. For Example 12 water was used as the drug vehicle.
In both the control group and the drug treated group in Example 12, the animals were inoculated on day zero with a homogenate of 10^6 seed cells of Lewis lung carcinoma. For Example 12, drug treatment was started on day one and COMPOUND 1 given once daily for nine days. Day five was utilized as the cut-off date for deaths attributable to toxicity of the drug. […] Efficacy of treatment was determined by comparing median survival time of the control animals and is expressed as percentage increase of treated animals/control animals (T/C).
The test period was for sixty days and at the end of the sixty day period all animals surviving in the test groups were evaluated as either cured, no-takes, or tumor survivors.
In this example, the drug tested animals were injected IP with the dose level noted in Table I below. Ten animals were treated at each dose level. No control animals survived beyond day 23 with a median death rate of day 19.0.

Lewis lung carcinoma [2] = test: Antitumor activity against Lewis lung carcinoma, Example 13 (Table II); assay type: in vivo, B6 D2 F1 female mice; conditions: for Treated Group Survival Time: median, control 16.9
Experimental: as §1, §2, §3
In this example COMPOUND 1 was tested in B6 D2 F1 female mice challenged with Lewis lung carcinoma. The median survival time of the test animals was compared to that of appropriate control animals.

Lewis lung carcinoma [3] = test: Lewis lung in vivo mouse model, low doses, Example 13 (Table III); parameters: species or system B6 D2 F1 female mice; conditions: for Treated Group Survival Time: control 20.2
Experimental: as §1, §2, §3
COMPOUND 1 was further tested in a Lewis lung in vivo mouse model using B6 D2 F1 female mice challenged with Lewis lung carcinoma.

Hela cells = test: Toxicity to Hela cells; conditions: 1000 ug/ml (highest concentration tested)
[4] = 3 mg/kg IP once daily for nine days
[5] = 6 mg/kg IP once daily for nine days
[6] = 9 mg/kg IP once daily for nine days
[7] = 13 mg/kg IP once daily for nine days
[8] = 20 mg/kg IP once daily for nine days
[9] = 33 mg/kg IP once daily for nine days
[10] = 50 mg/kg IP once daily for nine days
[11] = 75 mg/kg IP once daily for nine days
[12] = 12 mg/kg (12.50 mg/kg in source)

NC(=O)c1c[se]c([C@@H]2O[C@H](CO)[C@@H](O)[C@H]2O)n1 [COMPOUND 1, 2-β-D-ribofuranosylselenazole-4-carboxamide]
Cures (Lewis lung carcinoma [1]; [4]): One and 1/10
Percent Treated Animal/Control Animal (T/C) (Lewis lung carcinoma [1]; [4]): 152%
Treated Group Survival Time (Lewis lung carcinoma [1]; [4]): 28.9
Cures (Lewis lung carcinoma [1]; [5]): 1/10
Treated Group Survival Time (Lewis lung carcinoma [1]; [5]): 12.0
Cures (Lewis lung carcinoma [1]; [6]): 3/10
Treated Group Survival Time (Lewis lung carcinoma [1]; [6]): 10.4
Cures (Lewis lung carcinoma [1]; [7]): 5 out of 10 and 5/10
Percent Treated Animal/Control Animal (T/C) (Lewis lung carcinoma [1]; [7]): 315%
Treated Group Survival Time (Lewis lung carcinoma [1]; [7]): 60.0
Cures (Lewis lung carcinoma [1]; [8]): 2/10
Treated Group Survival Time (Lewis lung carcinoma [1]; [8]): 16.0
Cures (Lewis lung carcinoma [1]; [9]): 3/10
Percent Treated Animal/Control Animal (T/C) (Lewis lung carcinoma [1]; [9]): 94%
Treated Group Survival Time (Lewis lung carcinoma [1]; [9]): 18.0
Cures (Lewis lung carcinoma [1]; [10]): 1/10
Percent Treated Animal/Control Animal (T/C) (Lewis lung carcinoma [1]; [10]): 94%
Treated Group Survival Time (Lewis lung carcinoma [1]; [10]): 18.0
Cures (Lewis lung carcinoma [1]; [11]): 7 out of 10 and 7/10
Percent Treated Animal/Control Animal (T/C) (Lewis lung carcinoma [1]; [11]): 315%
Treated Group Survival Time (Lewis lung carcinoma [1]; [11]): 60.0
survival of treated animals in words (Lewis lung carcinoma [1]; 75 and 13 mg/kg IP): all of the treated animals survived
antitumor activity in words (Lewis lung carcinoma [1]; Lewis lung carcinoma, mice): active against Lewis lung carcinoma; also recorded: outstanding activity against Lewis lung carcinoma
mortality attributable to drug toxicity (Lewis lung carcinoma [1]; cut-off day five, 3-75 mg/kg IP once daily): no mortality attributable to drug toxicity
DN2 criteria of NCI (Lewis lung carcinoma [1]; mouse, in vivo): successfully passed the DN (decision network) 2 criteria; also recorded: DN2 criteria of NCI were passed
Cures (Lewis lung carcinoma [2]; [12]): 8 out of 10 and 8/10
Percent Treated Animals/Control Animals (T/C) (Lewis lung carcinoma [2]; [12]): 355%
Treated Group Survival Time (Lewis lung carcinoma [2]; [12]): 60.0
Cures (Lewis lung carcinoma [2]; 25 mg/kg): 7 out of 10 and 7/10
Percent Treated Animals/Control Animals (T/C) (Lewis lung carcinoma [2]; 25 mg/kg): 355%
Treated Group Survival Time (Lewis lung carcinoma [2]; 25 mg/kg): 60.0
Cures (Lewis lung carcinoma [2]; 50 mg/kg): 6 out of 10 and 6/10
Percent Treated Animals/Control Animals (T/C) (Lewis lung carcinoma [2]; 50 mg/kg): 355%
Treated Group Survival Time (Lewis lung carcinoma [2]; 50 mg/kg): 60.0
Cures (Lewis lung carcinoma [2]; 100 mg/kg): 3/10
Percent Treated Animals/Control Animals (T/C) (Lewis lung carcinoma [2]; 100 mg/kg): 120%
Treated Group Survival Time (Lewis lung carcinoma [2]; 100 mg/kg): 20.3
Cures (Lewis lung carcinoma [2]; 200 mg/kg): 0/10
Treated Group Survival Time (Lewis lung carcinoma [2]; 200 mg/kg): 10.7
survival of test animals in words (Lewis lung carcinoma [2]; 50, 25 and 12.50 mg/kg): all of the test animals survived
antitumor activity in words (Lewis lung carcinoma [2]; median survival time versus control): effective antitumor agent
Cures (Lewis lung carcinoma [3]; 0.75 mg/kg): 0/10
Percent Treated Animals/Control Animals (T/C) (Lewis lung carcinoma [3]; 0.75 mg/kg): 107%
Treated Group Survival Time (Lewis lung carcinoma [3]; 0.75 mg/kg): 21.7
Cures (Lewis lung carcinoma [3]; 1.50 mg/kg): 0/10
Percent Treated Animals/Control Animals (T/C) (Lewis lung carcinoma [3]; 1.50 mg/kg): 110%
Treated Group Survival Time (Lewis lung carcinoma [3]; 1.50 mg/kg): 22.3
Cures (Lewis lung carcinoma [3]; 3.00 mg/kg): 0/10
Percent Treated Animals/Control Animals (T/C) (Lewis lung carcinoma [3]; 3.00 mg/kg): 153%
Treated Group Survival Time (Lewis lung carcinoma [3]; 3.00 mg/kg): 31.0
DN2 level activity (Lewis lung carcinoma [3]; 3 mg/kg, percent T/C greater than 150): achieved DN2 level activity
Cures (Lewis lung carcinoma [3]; 6.00 mg/kg): 5 out of 10 and 5/10
Percent Treated Animals/Control Animals (T/C) (Lewis lung carcinoma [3]; 6.00 mg/kg): 297%
Treated Group Survival Time (Lewis lung carcinoma [3]; 6.00 mg/kg): 60.0
Cures (Lewis lung carcinoma [3]; 12.00 mg/kg): 9/10
Percent Treated Animals/Control Animals (T/C) (Lewis lung carcinoma [3]; 12.00 mg/kg): 297%
Treated Group Survival Time (Lewis lung carcinoma [3]; 12.00 mg/kg): 60.0
Cures (Lewis lung carcinoma [3]; 24.00 mg/kg): 9 out of 10 and 9/10
Percent Treated Animals/Control Animals (T/C) (Lewis lung carcinoma [3]; 24.00 mg/kg): 297%
Treated Group Survival Time (Lewis lung carcinoma [3]; 24.00 mg/kg): 60.0
antitumor activity in words (Lewis lung carcinoma [3]; mouse, in vivo): effective antitumor agent
toxicity to cells (Hela cells): non-toxic
